One series addresses T1, SCN5A (INa) (Homo sapiens, UniProt Q14524).
T1 construct: expressed in transfected cells; host or cells: HEK293
The series can be described thus: Whole-cell patch clamp, INa in SCN5A-transfected HEK293 cells. It counts as cell-based. Conditions: for INa current: HEK293. The text has this: For various aspects of cardiac ion channel study, human embryonic kidney (HEK293; ATCC, Manassas, VA, USA) cells were transiently transfected using lipofectAmin2000 (Gibco BRL, New York, NY, USA) according to the manufacturer’s instructions. The hERG (human ether-ago-go-related gene corresponding to IKr), KCNQ1/KCNE1 (the gene corresponding to IKs), KCNJ2 (the gene corresponding to IK1) or SCN5A (the gene corresponding to INa) cDNA was co-transfected with green fluorescence protein, the surface marker protein, to allow assessment of the transfection efficiency. For the calcium current, enzymatically isolated single rat ventricular myocytes were used. Briefly, the hearts were rapidly excised from anaesthetized Sprague–Dawley rats (250–350 g) and perfused via the aorta on a Langendorff apparatus with an oxygenated normal Tyrode (NT) solution for 5 min. To clear the blood, then perfused with Ca^2+-free normal Tyrode solution for 3 min. Next, the heart was perfused with enzyme solution containing 0.6 mg/mL collagenase (Worthington Biomedical Corp., Lakewood, NJ, USA) for 30–40 min. Finally, this enzyme-containing solution was washed out for 5 min. with a high-K^+ and low-Cl^-) Kraft-Bruhe solution. Following the isolation procedure, the left ventricle was dissected out and agitated mechanically with a fire-polished Pasteur pipette in Kraft-Bruhe solution to obtain single myocytes. The isolated myocytes were stored at 4°C until use.
The external solution for recording the IhERG, IKs and INa channel currents was NT solution. […] Kraft-Bruhe solution for storage of the freshly isolated rat ventricular myocytes contained (in mM): 70 K-glutamate, 55 KCl, 10 HEPES, 3 MgCl2, 20 taurine, 20 KH2PO4, 0.5 ethylene glycol tetra acetic (K-EGTA) (pH 7.2 with KOH).
(§1) pCLAMP (Axon Instruments, Foster City, CA, USA), Origin 8 (OriginLab Corp, Northampton, MA, USA), and Excel (Microsoft, Redmond, WA, USA) were used for data acquisition and analysis. The concentration–response relationships for drug-induced blockage were calculated using SigmaPlot (Systat Software, San Jose, CA, USA). […] Data are presented as the means ± SEM, and n represents the number of experimental replicates. Statistical significance was determined using the Student’s t-test and one-way ANOVA with post hoc testing using Dunnett’s method; p < 0.05 was considered to indicate statistical significance.
For hERG tail current, the cells were depolarized for 2 s to +20 mV from a holding potential of -80 mV followed by a 3 s repolarization back to -40 mV. […] For slow delayed rectifier potassium current (IKs) recording, the cells were depolarized for 3s to +60 mV from a holding potential of -80 mV, followed by a 3 s repolarization back to -40 mV (Fig 2B). […]

The target in another series is T623A hERG (Homo sapiens, UniProt Q12809, T623A). Conditions: 3 μM. The source says: The hERG mutations were constructed by site-directed mutagenesis of WT hERG cDNA in pcDNA3.1 vector using the QuickChange Site-Directed Mutagenesis Kit (Stratagene), and the integrity of the construct was verified by DNA sequencing. The WT hERG (generously donated by Professor Ho, Seoul National University, Korea) and mutant channels were transiently expressed in an HEK-293 cell line using Lipofectamine 2000 (Gibco), according to the manufacturer’s recommendations.

The target in a further series is T2, IhERG in hiPSC-CMs (Homo sapiens, UniProt Q12809).
T2 construct: host or cells: hiPSC-CMs (iCell Cardiomyocytes)
The series can be described thus: IhERG current in hiPSC-CMs (voltage clamp). It counts as cell-based. More on the design: unit not given here. The protocol: The hiPSC-CMs from human fibroblast cell lines (iCell Cardiomyocytes; Cellular Dynamics International, Madison, WI, USA) were purchased and cultured for single-cell electrophysiological recordings. Frozen vials of hiPSC-CMs were thawed in a water bath maintained at 37°C and mixed with ice-cold plating medium (iCell Cardiomyocyte Plating Medium, glucose-free). The cells were transferred to four-well culture plates containing 0.1% gelatin-coated glass coverslips and then maintained in a culture incubator at 37°C in an atmosphere of 93% air and 7% CO2. After 2 days of culture, the plating medium was replaced with culture medium (iCell Cardiomyocyte Maintenance Medium, glucose-free), which was then changed every 2 days. The hiPSC-CMs were cultured for 4 weeks and used at 7 to 28 days post-thaw for electrophysiological analysis. […] The internal solution contained (in mM) 120 K-Asp, 20 KCl, 5 NaCl, 2 CaCl2, 10 HEPES, 5 EGTA, and 5 Mg-ATP (pH 7.25). We recorded typical APs in hiPSC-CMs in the current-clamp mode. The spontaneous beating activity or paced firing of single hiPSC-CMs were recorded, and only hiPSC-CMs that could beat stably were included in the analysis. Following stabilization of the AP waveforms, the average of six recorded APs for each test concentration was analyzed.
as §1

Another series addresses INa in hiPSC-CMs (Homo sapiens, UniProt Q14524). Put plainly: INa current in hiPSC-CMs (voltage clamp). It counts as cell-based. Further details: INa current: unit not given here.
A further series deals with Y652A hERG (Homo sapiens, UniProt Q12809, Y652A). Put plainly: in vitro. Conditions: HEK-293 cells transiently expressing Y652A mutant hERG. A general note: The hERG channel carries a current that helps repolarise heart muscle cells.

The text below walks through data of paper PMC5891061, “Electrophysiological mechanisms of vandetanib-induced cardiotoxicity: Comparison of action potentials in rabbit Purkinje fibers and pluripotent stem cell-derived cardiomyocytes” (PLoS ONE, 2018).

The structures appear in SMILES notation.

Chain of INa in hiPSC-CMs (Q14524 212-1075 limits assumed): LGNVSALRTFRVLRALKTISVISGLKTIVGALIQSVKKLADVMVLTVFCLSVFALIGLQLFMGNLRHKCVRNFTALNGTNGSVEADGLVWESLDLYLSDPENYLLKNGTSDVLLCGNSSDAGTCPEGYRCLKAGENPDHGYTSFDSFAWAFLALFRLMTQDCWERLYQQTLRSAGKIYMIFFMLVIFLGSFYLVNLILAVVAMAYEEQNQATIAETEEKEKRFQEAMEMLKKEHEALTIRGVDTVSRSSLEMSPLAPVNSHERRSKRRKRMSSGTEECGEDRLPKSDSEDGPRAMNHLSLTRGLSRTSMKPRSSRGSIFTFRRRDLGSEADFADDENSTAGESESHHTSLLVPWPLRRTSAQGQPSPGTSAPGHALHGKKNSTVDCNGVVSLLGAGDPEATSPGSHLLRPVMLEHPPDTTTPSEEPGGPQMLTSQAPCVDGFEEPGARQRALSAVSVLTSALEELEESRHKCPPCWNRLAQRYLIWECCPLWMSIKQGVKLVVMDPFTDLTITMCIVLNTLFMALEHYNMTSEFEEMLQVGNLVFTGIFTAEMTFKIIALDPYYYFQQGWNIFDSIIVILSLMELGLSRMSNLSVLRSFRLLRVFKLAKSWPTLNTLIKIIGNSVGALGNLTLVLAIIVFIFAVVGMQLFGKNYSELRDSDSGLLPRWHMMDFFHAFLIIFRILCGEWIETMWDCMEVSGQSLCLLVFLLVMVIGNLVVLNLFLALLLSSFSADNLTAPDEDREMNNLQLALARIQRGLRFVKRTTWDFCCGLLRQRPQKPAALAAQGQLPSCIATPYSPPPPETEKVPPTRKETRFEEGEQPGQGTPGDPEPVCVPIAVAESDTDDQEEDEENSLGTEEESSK
Chain of INa in hiPSC-CMs (Q14524 1131-2016 limits assumed): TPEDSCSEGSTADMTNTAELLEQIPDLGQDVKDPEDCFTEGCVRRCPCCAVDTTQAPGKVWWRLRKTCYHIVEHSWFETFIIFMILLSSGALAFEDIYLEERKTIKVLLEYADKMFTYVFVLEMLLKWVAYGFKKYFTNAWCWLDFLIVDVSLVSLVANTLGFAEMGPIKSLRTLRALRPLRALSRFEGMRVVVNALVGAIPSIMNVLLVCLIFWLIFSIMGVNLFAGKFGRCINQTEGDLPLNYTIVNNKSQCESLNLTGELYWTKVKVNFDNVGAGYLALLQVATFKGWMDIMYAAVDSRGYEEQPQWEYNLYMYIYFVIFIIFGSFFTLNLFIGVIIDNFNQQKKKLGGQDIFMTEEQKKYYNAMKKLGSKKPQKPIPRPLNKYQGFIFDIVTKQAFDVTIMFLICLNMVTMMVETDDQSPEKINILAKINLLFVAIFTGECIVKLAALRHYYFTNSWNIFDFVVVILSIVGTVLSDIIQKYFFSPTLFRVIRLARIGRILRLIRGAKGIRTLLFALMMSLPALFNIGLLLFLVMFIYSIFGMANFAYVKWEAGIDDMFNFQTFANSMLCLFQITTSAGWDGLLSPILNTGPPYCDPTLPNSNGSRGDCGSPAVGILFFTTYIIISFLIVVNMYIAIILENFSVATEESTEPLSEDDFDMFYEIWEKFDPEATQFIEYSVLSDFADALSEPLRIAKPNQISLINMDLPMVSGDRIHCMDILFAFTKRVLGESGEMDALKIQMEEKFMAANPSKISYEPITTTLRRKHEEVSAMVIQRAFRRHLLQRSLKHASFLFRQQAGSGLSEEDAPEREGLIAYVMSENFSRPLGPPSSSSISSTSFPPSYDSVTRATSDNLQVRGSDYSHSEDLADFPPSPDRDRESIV
T1 sequence (Q14524 whole entry, species assumed): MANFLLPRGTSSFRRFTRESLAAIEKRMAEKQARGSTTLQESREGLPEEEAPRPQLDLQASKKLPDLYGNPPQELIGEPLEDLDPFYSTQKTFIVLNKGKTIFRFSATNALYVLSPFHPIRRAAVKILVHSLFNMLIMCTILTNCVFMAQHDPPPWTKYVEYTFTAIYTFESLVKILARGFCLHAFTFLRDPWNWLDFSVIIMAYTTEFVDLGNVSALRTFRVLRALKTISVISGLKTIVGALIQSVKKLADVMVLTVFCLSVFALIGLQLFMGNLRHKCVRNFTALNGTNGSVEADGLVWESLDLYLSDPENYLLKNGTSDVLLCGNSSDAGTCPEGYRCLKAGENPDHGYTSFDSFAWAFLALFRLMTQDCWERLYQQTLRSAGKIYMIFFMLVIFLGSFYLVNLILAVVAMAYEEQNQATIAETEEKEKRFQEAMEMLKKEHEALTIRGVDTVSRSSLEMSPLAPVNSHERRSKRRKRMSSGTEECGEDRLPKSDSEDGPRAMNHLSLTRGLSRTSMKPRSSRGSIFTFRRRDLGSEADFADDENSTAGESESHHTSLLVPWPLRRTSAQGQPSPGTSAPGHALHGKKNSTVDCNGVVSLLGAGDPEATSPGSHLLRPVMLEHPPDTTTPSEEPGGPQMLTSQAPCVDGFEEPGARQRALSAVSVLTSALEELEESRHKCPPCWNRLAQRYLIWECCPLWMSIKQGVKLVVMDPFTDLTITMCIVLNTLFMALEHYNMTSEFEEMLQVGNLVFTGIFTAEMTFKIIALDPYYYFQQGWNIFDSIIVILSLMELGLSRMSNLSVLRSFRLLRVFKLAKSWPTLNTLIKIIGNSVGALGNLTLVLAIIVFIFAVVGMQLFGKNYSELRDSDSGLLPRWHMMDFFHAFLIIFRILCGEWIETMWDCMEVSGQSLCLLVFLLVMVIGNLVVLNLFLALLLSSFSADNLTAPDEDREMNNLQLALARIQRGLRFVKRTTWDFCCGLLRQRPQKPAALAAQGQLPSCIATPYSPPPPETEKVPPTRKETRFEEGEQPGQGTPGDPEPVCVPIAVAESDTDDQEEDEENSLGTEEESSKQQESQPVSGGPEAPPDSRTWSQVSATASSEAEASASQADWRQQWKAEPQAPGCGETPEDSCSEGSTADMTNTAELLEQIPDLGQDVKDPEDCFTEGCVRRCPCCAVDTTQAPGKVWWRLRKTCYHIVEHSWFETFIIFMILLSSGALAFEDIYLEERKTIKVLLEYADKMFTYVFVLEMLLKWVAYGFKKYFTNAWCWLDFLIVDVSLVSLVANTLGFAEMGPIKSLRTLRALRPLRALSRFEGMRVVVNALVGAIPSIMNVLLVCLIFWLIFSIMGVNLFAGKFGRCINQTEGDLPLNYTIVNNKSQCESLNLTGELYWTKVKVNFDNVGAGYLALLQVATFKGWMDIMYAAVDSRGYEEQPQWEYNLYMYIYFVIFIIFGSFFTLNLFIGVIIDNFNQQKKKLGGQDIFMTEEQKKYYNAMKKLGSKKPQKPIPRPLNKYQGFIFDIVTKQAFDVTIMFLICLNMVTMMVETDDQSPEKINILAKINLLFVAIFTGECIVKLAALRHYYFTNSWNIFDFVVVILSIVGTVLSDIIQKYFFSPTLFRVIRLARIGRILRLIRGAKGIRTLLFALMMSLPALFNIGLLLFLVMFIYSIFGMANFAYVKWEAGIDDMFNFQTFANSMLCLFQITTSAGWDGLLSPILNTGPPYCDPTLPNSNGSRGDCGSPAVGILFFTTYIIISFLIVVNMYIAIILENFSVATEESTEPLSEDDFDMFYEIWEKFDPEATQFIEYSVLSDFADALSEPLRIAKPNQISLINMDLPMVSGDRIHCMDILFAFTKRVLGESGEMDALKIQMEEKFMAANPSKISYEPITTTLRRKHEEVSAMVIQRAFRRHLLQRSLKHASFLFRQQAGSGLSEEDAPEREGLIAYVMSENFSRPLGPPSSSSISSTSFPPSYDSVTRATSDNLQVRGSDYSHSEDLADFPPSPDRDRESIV

As a reminder, the IC50 is the concentration that gives 50% inhibition. What is called inhibition is the percentage by which the read-out fell short of the control. As to `COc1cc2c(Nc3ccc(Br)cc3F)ncnc2cc1OCC1CCN(C)CC1` [Vandetanib], the INa current on SCN5A (INa) (10 μM) is reported as -948.9 ± 24.2; at SCN5A (INa) (30 μM), -743.0 ± 85.1; on SCN5A (INa) (100 μM), -94.2 ± 36.8; on INa in hiPSC-CMs (1 μM), -4046.1 ± 53.7; at INa in hiPSC-CMs (3 μM), -2284.0 ± 79.5; on INa in hiPSC-CMs (10 μM) it was -1205.7 ± 89.8. In addition, the INa current at INa in hiPSC-CMs (30 μM) is recorded as -643.2 ± 33.6. Also, the IC50 at SCN5A (INa) (SCN5A-encoded HEK293 cells) was found to be 36.6 µM; at INa in hiPSC-CMs, 2.72 µM. In addition, the “T623A hERG current” value on T623A hERG is 266.1 ± 117.0. The IhERG current turned out to be 196.0 ± 3.2 at IhERG in hiPSC-CMs (0.1 μM), 164.9 ± 9.4 at IhERG in hiPSC-CMs (0.3 μM), 92.8 ± 11.2 on IhERG in hiPSC-CMs (1 μM) and 20.4 ± 4.4 on IhERG in hiPSC-CMs (3 μM). This compound also showed an inhibition at 3 μM at Y652A hERG of 64.2 ± 2.8%.
